Test results from patent US20240368177A1, “5-AMINO-6,8-DIHYDRO-1H-FURO[3,4-d]PYRROLO[3,2-b]PYRIDINE-2-CARBOXAMIDE DERIVATIVES AS MTA-COOPERATIVE INHIBITORS OF PRMT5” (BeiGene Switzerland GmbH, priority 2023, published 2024).

Experiments:
HCT116-MTAP-KO = assay: Cell killing in HCT116 isogenic pair (Cell Titer-Glo viability), MTAP knock-out cells; type: cell-based, human; details: Homo sapiens, HCT-116, 144 h, 6 days incubation, 0-10 μM, * = more than 50% viability inhibition at tested concentration without a full curve
Text: (§1) HCT116 cell line (ATCC, CCL-247) was isolated from the colon of an adult with colon cancer. It has a mutation in codon 13 of the ras proto-oncogene and can be used as a positive control for PCR assays of mutation in this codon. HCT116-MTAP-KO was knocked-out-MTAP-gene based HCT116, and a single clone was passed for this assay. HCT116-mock-RNA-KO was knocked-out-mock-gene based HCT116 with MTAP wildtype genotype. The base medium for HCT116 isogenic pair is RPMI 1640, HEPES (Gibco, 22400105). To make the complete growth medium, added the following components to the base medium: fetal bovine serum to a final concentration of 10% (Gibco, 10099-141C). The cell line was grown in a humidified 5% CO2 atmosphere at 37° C. and regularly tested for the presence of mycoplasma with MpcoAlert™ PLUS Mycoplasma Detection Kit (Lonzak LT07-710).
(§2) • Seeded HCT116-mock-RNA-KO (4E2/well) or HCT116-MTAP-KO (4E2/well) cells into a 96-well plate (Greiner: 655090), 100 μL/well. • Incubated at 37° C., 5% CO2, overnight. • Added 50 μL fresh growth medium containing serial dilution of test compounds for a final test compound concentration of 0-10 μM to each well. • Incubated at 37° C., 5% CO2, 6 days. • The cell viability was detected by Cell Titer-Glo (Promega, G7573). Added 70 μL of CeliTiter-Glo® reagent in each well. • Incubated at room temperature for 10 minutes to stabilize luminescent signal. • Analyzed with Microplate Reader (TECAN, SPARK) and fit IC50 using Prism® 9.

HCT116-mock-RNA-KO = assay: Cell killing in HCT116 isogenic pair (Cell Titer-Glo viability), mock knock-out cells with MTAP wildtype genotype; type: cell-based, human; details: Homo sapiens, HCT-116, 144 h, 6 days incubation, 0-10 μM
Text: as §1, §2

Q: With COC[C@@H](C)N(Cc1ccc(Br)cn1)C(=O)c1cc2nc(N)c3c(c2[nH]1)COC3 [Example 45, (R)-5-amino-N-((5-bromopyridin-2-yl)methyl)-N-(1-methoxypropan-2-yl)-6,8-dihydro-1H-furo[3,4-d]pyrrolo[3,2-b]pyridine-2-carboxamide] as the compound, how does the IC50 (HCT116-MTAP-KO) read?
A: Its IC50 is 7.2 nM.

Q: What about the IC50 (HCT116-mock-RNA-KO) of the same compound?
A: The IC50 was 856 nM.

Q: COC[C@@H](C)N(Cc1c(F)cc(C#N)cc1F)C(=O)c1cc2nc(N)c3c(c2[nH]1)COC3 [Example 46, (R)-5-amino-N-(4-cyano-2,6-difluorobenzyl)-N-(1-methoxypropan-2-yl)-6,8-dihydro-1H-furo[3,4-d]pyrrolo[3,2-b]pyridine-2-carboxamide] was tested. Which IC50 (HCT116-MTAP-KO) did it give?
A: Its IC50 is 9 nM.

Q: And the IC50 (HCT116-mock-RNA-KO)?
A: Its IC50 is 854 nM.

Q: What does the source list for Nc1nc2cc(C(=O)N(Cc3ncccc3F)Cc3c(F)cc(F)cc3F)[nH]c2c2c1COC2 [Example 47, 5-amino-N-((3-fluoropyridin-2-yl)methyl)-N-(2,4,6-trifluorobenzyl)-6,8-dihydro-1H-furo[3,4-d]pyrrolo[3,2-b]pyridine-2-carboxamide]?
A: IC50 (HCT116-MTAP-KO): 4.4 nM; IC50 (HCT116-mock-RNA-KO): 605 nM

Q: Which results are given for C[C@H](c1ncccn1)N(Cc1ccc(C2CC2)cn1)C(=O)c1cc2nc(N)c3c(c2[nH]1)COC3 [Example 48, (R)-5-amino-N-((5-cyclopropylpyridin-2-yl)methyl)-N-(1-(pyrimidin-2-yl)ethyl)-6,8-dihydro-1H-furo[3,4-d]pyrrolo[3,2-b]pyridine-2-carboxamide]?
A: IC50 (HCT116-MTAP-KO): 8.4 nM; IC50 (HCT116-mock-RNA-KO): 625 nM

Q: Which results are given for COC[C@@H](C)N(Cc1ncc(Br)cc1F)C(=O)c1cc2nc(N)c3c(c2[nH]1)COC3 [Example 49, (R)-5-amino-N-((5-bromo-3-fluoropyridin-2-yl)methyl)-N-(1-methoxypropan-2-yl)-6,8-dihydro-1H-furo[3,4-d]pyrrolo[3,2-b]pyridine-2-carboxamide]?
A: IC50 (HCT116-MTAP-KO): 6.1 nM; IC50 (HCT116-mock-RNA-KO): 835 nM

Q: Which IC50 (HCT116-MTAP-KO) does the source give for C[C@H]1OCc2c1c(N)nc1cc(C(=O)N(Cc3ccc(Br)cn3)Cc3ncccc3F)[nH]c21 [Example 50, (R)-5-amino-N-((5-bromopyridin-2-yl)methyl)-N-((3-fluoropyridin-2-yl)methyl)-6-methyl-6,8-dihydro-1H-furo[3,4-d]pyrrolo[3,2-b]pyridine-2-carboxamide] here?
A: Its IC50 is 8.6 nM.

Q: What about the IC50 (HCT116-mock-RNA-KO) of the same compound?
A: The IC50 was 1360 nM.

Q: Which IC50 (HCT116-MTAP-KO) does the source give for C[C@H](c1ncccn1)N(Cc1ccc(I)cn1)C(=O)c1cc2nc(N)c3c(c2[nH]1)COC3 [Example 51, (R)-5-amino-N-((5-iodopyridin-2-yl)methyl)-N-(1-(pyrimidin-2-yl)ethyl)-6,8-dihydro-1H-furo[3,4-d]pyrrolo[3,2-b]pyridine-2-carboxamide] here?
A: The IC50 was 7.8 nM.

Q: And the IC50 (HCT116-mock-RNA-KO)?
A: The IC50 was 558 nM.

Q: Which results are given for C[C@H](c1ncccn1)N(Cc1ncc(C2CC2)cc1F)C(=O)c1cc2nc(N)c3c(c2[nH]1)COC3 [Example 52, (R)-5-amino-N-((5-cyclopropyl-3-fluoropyridin-2-yl)methyl)-N-(1-(pyrimidin-2-yl)ethyl)-6,8-dihydro-1H-furo[3,4-d]pyrrolo[3,2-b]pyridine-2-carboxamide]?
A: IC50 (HCT116-MTAP-KO): 4.6 nM; IC50 (HCT116-mock-RNA-KO): 419 nM

Q: How did the IC50 (HCT116-MTAP-KO) turn out when COC[C@@H](C)N(Cc1cnc(C2CC2)cn1)C(=O)c1cc2nc(N)c3c(c2[nH]1)COC3 [Example 53, (R)-5-amino-N-((5-cyclopropylpyrazin-2-yl)methyl)-N-(1-methoxypropan-2-yl)-6,8-dihydro-1H-furo[3,4-d]pyrrolo[3,2-b]pyridine-2-carboxamide] was run?
A: Its IC50 is 34 nM.

Q: And the IC50 (HCT116-mock-RNA-KO)?
A: The IC50 was over 10000 nM.

Q: CCN(C(=O)c1cc2nc(N)c3c(c2[nH]1)COC3)[C@@H]1COCc2cc(C(F)(F)F)ccc21 [Example 54, (S)-5-amino-N-ethyl-N-(7-(trifluoromethyl)isochroman-4-yl)-6,8-dihydro-1H-furo[3,4-d]pyrrolo[3,2-b]pyridine-2-carboxamide] was tested. Which IC50 (HCT116-MTAP-KO) did it give?
A: The IC50 was 12 nM.

Q: What about the IC50 (HCT116-mock-RNA-KO) of the same compound?
A: The IC50 was 1360 nM.

Q: CCN(C(=O)c1cc2nc(N)c3c(c2[nH]1)COC3)[C@H]1COCc2cc(C(F)(F)F)ccc21 [Example 55, (R)-5-amino-N-ethyl-N-(7-(trifluoromethyl)isochroman-4-yl)-6,8-dihydro-1H-furo[3,4-d]pyrrolo[3,2-b]pyridine-2-carboxamide] was tested. Which IC50 (HCT116-MTAP-KO) did it give?
A: The IC50 was 1640 nM.

Q: And the IC50 (HCT116-mock-RNA-KO)?
A: The IC50 was over 10000 nM.

Q: Which results are given for COC[C@@H](C)N(Cc1ncc(C2CC2)cc1F)C(=O)c1cc2nc(N)c3c(c2[nH]1)COC3 [Example 56, (R)-5-amino-N-((5-cyclopropyl-3-fluoropyridin-2-yl)methyl)-N-(1-methoxypropan-2-yl)-6,8-dihydro-1H-furo[3,4-d]pyrrolo[3,2-b]pyridine-2-carboxamide]?
A: IC50 (HCT116-MTAP-KO): 5 nM; IC50 (HCT116-mock-RNA-KO): 146 nM

Q: For C[C@H]1OC[C@H](N(C)C(=O)c2cc3nc(N)c4c(c3[nH]2)COC4)c2ccc(C(F)(F)F)cc21 [Example 57, 5-amino-N-methyl-N-((1R,4R)-1-methyl-7-(trifluoromethyl)isochroman-4-yl)-6,8-dihydro-1H-furo[3,4-d]pyrrolo[3,2-b]pyridine-2-carboxamide], which IC50 (HCT116-MTAP-KO) is on record?
A: Its IC50 is 958 nM.

Q: What about the IC50 (HCT116-mock-RNA-KO) of the same compound?
A: Its IC50 is over 10000 nM.

Q: C[C@@H]1OC[C@H](N(C)C(=O)c2cc3nc(N)c4c(c3[nH]2)COC4)c2ccc(C(F)(F)F)cc21 [Example 58, 5-amino-N-methyl-N-((1S,4R)-1-methyl-7-(trifluoromethyl)isochroman-4-yl)-6,8-dihydro-1H-furo[3,4-d]pyrrolo[3,2-b]pyridine-2-carboxamide] was tested. Which IC50 (HCT116-MTAP-KO) did it give?
A: Its IC50 is 1080 nM.

Q: What about the IC50 (HCT116-mock-RNA-KO) of the same compound?
A: The IC50 was over 10000 nM.

Q: C[C@@H]1OC[C@@H](N(C)C(=O)c2cc3nc(N)c4c(c3[nH]2)COC4)c2ccc(C(F)(F)F)cc21 [Example 59, 5-amino-N-methyl-N-((1S,4S)-1-methyl-7-(trifluoromethyl)isochroman-4-yl)-6,8-dihydro-1H-furo[3,4-d]pyrrolo[3,2-b]pyridine-2-carboxamide] was tested. Which IC50 (HCT116-MTAP-KO) did it give?
A: The IC50 was 110 nM.

Q: What about the IC50 (HCT116-mock-RNA-KO) of the same compound?
A: Its IC50 is over 10000 nM.

Q: Which IC50 (HCT116-MTAP-KO) does the source give for C[C@H]1OC[C@@H](N(C)C(=O)c2cc3nc(N)c4c(c3[nH]2)COC4)c2ccc(C(F)(F)F)cc21 [Example 60, 5-amino-N-methyl-N-((1R,4S)-1-methyl-7-(trifluoromethyl)isochroman-4-yl)-6,8-dihydro-1H-furo[3,4-d]pyrrolo[3,2-b]pyridine-2-carboxamide] here?
A: The IC50 was 7.3 nM.

Q: What about the IC50 (HCT116-mock-RNA-KO) of the same compound?
A: Its IC50 is 857 nM.

Q: With C[C@@H](c1cnccn1)N(Cc1ncc(Br)cc1F)C(=O)c1cc2nc(N)c3c(c2[nH]1)COC3 [Example 61, (S)-5-amino-N-((5-bromo-3-fluoropyridin-2-yl)methyl)-N-(1-(pyrazin-2-yl)ethyl)-6,8-dihydro-1H-furo[3,4-d]pyrrolo[3,2-b]pyridine-2-carboxamide] as the compound, how does the IC50 (HCT116-MTAP-KO) read?
A: The IC50 was 808 nM.

Q: And the IC50 (HCT116-mock-RNA-KO)?
A: The IC50 was over 10000 nM.

Q: C[C@H](c1cnccn1)N(Cc1ncc(Br)cc1F)C(=O)c1cc2nc(N)c3c(c2[nH]1)COC3 [Example 62, (R)-5-amino-N-((5-bromo-3-fluoropyridin-2-yl)methyl)-N-(1-(pyrazin-2-yl)ethyl)-6,8-dihydro-1H-furo[3,4-d]pyrrolo[3,2-b]pyridine-2-carboxamide] was tested. Which IC50 (HCT116-MTAP-KO) did it give?
A: Its IC50 is 17 nM.

Q: And the IC50 (HCT116-mock-RNA-KO)?
A: The IC50 was 2080 nM.

Q: Which IC50 (HCT116-MTAP-KO) does the source give for CN(C(=O)c1cc2nc(N)c3c(c2[nH]1)COC3)[C@@H]1COCc2cc(Br)ccc21 [Example 63, (S)-5-amino-N-(7-bromoisochroman-4-yl)-N-methyl-6,8-dihydro-1H-furo[3,4-d]pyrrolo[3,2-b]pyridine-2-carboxamide] here?
A: Its IC50 is 22 nM.

Q: What about the IC50 (HCT116-mock-RNA-KO) of the same compound?
A: The IC50 was 2500 nM.

Q: With CN(C(=O)c1cc2nc(N)c3c(c2[nH]1)COC3)[C@H]1COCc2cc(Br)ccc21 [Example 64, (R)-5-amino-N-(7-bromoisochroman-4-yl)-N-methyl-6,8-dihydro-1H-furo[3,4-d]pyrrolo[3,2-b]pyridine-2-carboxamide] as the compound, how does the IC50 (HCT116-MTAP-KO) read?
A: Its IC50 is 362 nM.

Q: What about the IC50 (HCT116-mock-RNA-KO) of the same compound?
A: The IC50 was over 10000 nM.

Q: With Nc1nc2cc(C(=O)N(Cc3ncc(C4CC4)cc3F)C3CCCC3)[nH]c2c2c1COC2 [Example 65, 5-amino-N-cyclopentyl-N-((5-cyclopropyl-3-fluoropyridin-2-yl)methyl)-6,8-dihydro-1H-furo[3,4-d]pyrrolo[3,2-b]pyridine-2-carboxamide] as the compound, how does the IC50 (HCT116-MTAP-KO) read?
A: The IC50 was 17 nM.

Q: And the IC50 (HCT116-mock-RNA-KO)?
A: The IC50 was 2460 nM.

Q: Which results are given for CC(C)N(Cc1ncc(C2CC2)cc1F)C(=O)c1cc2nc(N)c3c(c2[nH]1)COC3 [Example 66, 5-amino-N-((5-cyclopropyl-3-fluoropyridin-2-yl)methyl)-N-isopropyl-6,8-dihydro-1H-furo[3,4-d]pyrrolo[3,2-b]pyridine-2-carboxamide]?
A: IC50 (HCT116-MTAP-KO): 20 nM; IC50 (HCT116-mock-RNA-KO): 2520 nM

Q: What does the source list for CC[C@@H](C)N(Cc1ncc(C2CC2)cc1F)C(=O)c1cc2nc(N)c3c(c2[nH]1)COC3 [Example 67, (R)-5-amino-N-(sec-butyl)-N-((5-cyclopropyl-3-fluoropyridin-2-yl)methyl)-6,8-dihydro-1H-furo[3,4-d]pyrrolo[3,2-b]pyridine-2-carboxamide]?
A: IC50 (HCT116-MTAP-KO): 4.2 nM; IC50 (HCT116-mock-RNA-KO): 453 nM

Q: C[C@H]1OCc2c1c(N)nc1cc(C(=O)N(C)[C@@H]3COCc4cc(C(F)(F)F)ccc43)[nH]c21 [Example 68, (R)-5-amino-N,6-dimethyl-N—((S)-7-(trifluoromethyl)isochroman-4-yl)-6,8-dihydro-1H-furo[3,4-d]pyrrolo[3,2-b]pyridine-2-carboxamide] was tested. Which IC50 (HCT116-MTAP-KO) did it give?
A: Its IC50 is 9 nM.

Q: And the IC50 (HCT116-mock-RNA-KO)?
A: Its IC50 is 1690 nM.
